# Assay results from paper PMC7587432, “IP7-SPX Domain Interaction Controls Fungal Virulence by Stabilizing Phosphate Signaling Machinery” (mBio, 2020).
# Molecular target: T1, Pho81 (Pho81SPX-GFP; CnPho81) (Cryptococcus neoformans, UniProt J9VLD1)
# T1 construct: gene CNAG_02541; full-length Pho81 (N-terminal SPX, ankyrin repeat and GDE domains) with C-terminal GFP, expressed from the GDE2 promoter in C. neoformans H99; whole cell lysate, endogenous Pho80/Pho85/Pcl6/7 present
# Test: affinity capture from cell lysate on 5-PCP-IP5-conjugated resin, anti-GFP Western blot
# Format: biochemical
# Conditions: binds; resin-immobilised analog of 5-PP-IP5; Pi-conjugated resin as control; 50 mM Tris pH 7.5, 150 mM NaCl, 1 mM EDTA, 4 °C, 2 h; SPX domain lysine surface cluster
compound,measurement,value
O=P(O)(O)CP(=O)(O)O[C@H]1[C@H](OP(=O)(O)O)[C@@H](OP(=O)(O)O)[C@@H](OP(=O)(O)O)[C@@H](OP(=O)(O)O)[C@@H]1OP(=O)(O)O [5-PCP-IP5],"affinity capture from cell lysate on 5-PCP-IP5-conjugated resin, anti-GFP Wester","native Pho81 binds to the 5-PCP-IP5, but not to the Pi, resin"
